Where two headings read alike, the source gives them in different places.
Key:
M-HeLa [1] = experiment: cells; settings: Homo sapiens, 48 h, read-out: Cytotoxic Effects (IC50)
HuTu 80 [2] = settings: calculated relative to the cell line WI38 (a)
MCF-7 [3] = settings: calculated relative to the cell line WI38 (a)
[4] = tested on: Escherichia coli ATCC 25922; experiment: Antimicrobial activity, serial microdilutions, Ec; assay type: cell-based; parameters: key to Minimum Inhibitory Concentration (MIC) / Minimum bactericidal and fungicidal concentrations (MBC, MFC): – means non-active
How it was run: (§1)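 Yeast was cultured in Sabouraud broth and bacteria in Mueller-Hinton broth while compounds were tested by serial microdilution. The methicillin-resistant isolate (MRSA-1) originated from chronic tonsillitis; replicates n=3.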

HuTu 80 cells = experiment: Intracellular ROS, CellROX Deep Red flow cytometry; assay type: cell-based, human; settings: HuTu 80, IC50/2 and IC50, compared with the control
Description: ROS generation was investigated using a flow cytometry assay and the CellROX® Deep Red flow cytometry kit. For this, HuTu 80 cells were harvested at 2000 rpm for 5 min and then washed twice with ice-cold PBS, followed by resuspension in 0.1 mL of medium without FBS, to which was added 0.2 μL of CellROX® Deep Red and incubated at 37 °C for 30 min. After three washes, cells were suspended in PBS, and the cell production of ROS was immediately monitored using a flow cytometer (Guava easy Cyte).

T98G [5] = experiment: cells; settings: Homo sapiens, 48 h, read-out: Cytotoxic Effects (IC50)
MCF-7 [6] = experiment: cells; settings: Homo sapiens, MCF7, 48 h, read-out: Cytotoxic Effects (IC50)
PANC-1 [7] = experiment: cells; settings: Homo sapiens, PANC-1, 48 h, read-out: Cytotoxic Effects (IC50)
Hep G2 [8] = tested on: Hep G2
Hep G2 [9] = experiment: cells; settings: Homo sapiens, HepG2, 48 h, read-out: Cytotoxic Effects (IC50)
PC3 = settings: calculated relative to the cell line WI38 (a)
HuTu 80 [10] = experiment: cells; settings: Homo sapiens, HuTu80, 48 h, read-out: Cytotoxic Effects (IC50)
[11] = tested on: Pseudomonas aeruginosa ATCC 9027; experiment: Antimicrobial activity, serial microdilutions, Pa; assay type: cell-based; parameters: key to Minimum Inhibitory Concentration (MIC) / Minimum bactericidal and fungicidal concentrations (MBC, MFC): – means non-active
How it was run: as §1

PANC-1 [12] = settings: calculated relative to the cell line WI38 (a)
M-HeLa [13] = settings: calculated relative to the cell line WI38 (a)
[14] = tested on: Candida albicans ATCC 10231; experiment: Antimicrobial activity, serial microdilutions, Ca; assay type: cell-based; parameters: key to Minimum Inhibitory Concentration (MIC) / Minimum bactericidal and fungicidal concentrations (MBC, MFC): – means non-active; settings: Ca
How it was run: as §1

DU-145 [15] = settings: calculated relative to the cell line WI38 (a)
T98G [16] = settings: calculated relative to the cell line WI38 (a)
DU-145 [17] = experiment: cells; settings: Homo sapiens, DU-145, 48 h, read-out: Cytotoxic Effects (IC50), DU-145, MTT assay, 48 h
MRSA-1 = experiment: Antimicrobial activity, serial microdilutions, MRSA-1; assay type: cell-based, S. aureus; settings: Staphylococcus aureus; for MIC: read-out: Minimum Inhibitory Concentration (MIC); for MBC: read-out: Minimum bactericidal and fungicidal concentrations (MBC, MFC)
How it was run: as §1

MRSA-2 = experiment: Antimicrobial activity, serial microdilutions, MRSA-2; assay type: cell-based, S. aureus; settings: Staphylococcus aureus; for MIC: read-out: Minimum Inhibitory Concentration (MIC); for MBC: read-out: Minimum bactericidal and fungicidal concentrations (MBC, MFC)
How it was run: (§2)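 Compounds were serially diluted in broth: Mueller-Hinton for the bacterial strains, Sabouraud for the yeast. Each determination was done in triplicate.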

[18] = tested on: Staphylococcus aureus ATCC 6538 P FDA 209P; experiment: Antimicrobial activity, serial microdilutions, Sa; assay type: cell-based; settings: Staphylococcus aureus; for MIC: read-out: Minimum Inhibitory Concentration (MIC); for MBC: read-out: Minimum bactericidal and fungicidal concentrations (MBC, MFC)
How it was run: as §2

A549 [19] = tested on: A549
SK-OV-3 [20] = experiment: cells; settings: Homo sapiens, SK-OV-3, 48 h, read-out: Cytotoxic Effects (IC50)
[21] = tested on: Enterococcus faecalis ATCC 29212; experiment: Antimicrobial activity, serial microdilutions, Ef; assay type: cell-based; parameters: key to Minimum Inhibitory Concentration (MIC) / Minimum bactericidal and fungicidal concentrations (MBC, MFC): – means non-active; settings: for MIC: Enterococcus faecalis, ATCC29212, read-out: Minimum Inhibitory Concentration (MIC)
How it was run: as §2

SK-OV-3 [22] = settings: reference normal cell line not marked at the place (ns cells)
A549 [23] = experiment: cells; settings: Homo sapiens, A549, 48 h, read-out: Cytotoxic Effects (IC50)
[24] = tested on: Bacillus cereus ATCC 10702 NCTC 8035; experiment: Antimicrobial activity, serial microdilutions, Bc; assay type: cell-based; settings: Bacillus cereus; for MIC: Bc, read-out: Minimum Inhibitory Concentration (MIC); for MBC: read-out: Minimum bactericidal and fungicidal concentrations (MBC, MFC)
How it was run: as §1

[25] = reference normal cell line not marked at the place (ns cells)
[26] = calculated relative to the cell line WI38 (a)

| SMILES | IC50 (M-HeLa [1]) [µM] | selectivity index (SI) (HuTu 80 [2]) | selectivity index (SI) (MCF-7 [3]) | Minimum bactericidal and fungicidal concentrations (MBC, MFC) [4] | ROS production, CellROX Deep Red fluorescence (in words) (HuTu 80 cells) | IC50 (T98G [5]) [µM] | IC50 (MCF-7 [6]) [µM] | IC50 (PANC-1 [7]) [µM] | IC50 (Hep G2 [9]) [µM] | selectivity index (SI) (PC3) | IC50 (HuTu 80 [10]) [µM] | Minimum Inhibitory Concentration (MIC) [11] | Minimum bactericidal and fungicidal concentrations (MBC, MFC) [11] | selectivity index (SI) (PANC-1 [12]) | selectivity index (SI) (M-HeLa [13]) | Minimum Inhibitory Concentration (MIC) [14] | Minimum bactericidal and fungicidal concentrations (MBC, MFC) [14] | selectivity index (SI) (DU-145 [15]) | selectivity index (SI) (T98G [16]) | IC50 (DU-145 [17]) [µM] | other results |
| --- | --- | --- | --- | --- | --- | --- | --- | --- | --- | --- | --- | --- | --- | --- | --- | --- | --- | --- | --- | --- | --- |
| CCCCCC[P+](c1ccccc1)(c1ccccc1)N(CC)CC [6a, (Diethylamino)(hexyl)diphenylphosphonium iodide] | 5.8 ± 0.4 | 277 | 1.6 | – | increase in the fluorescence intensity | 18.4 ± 1.5 | 17 ± 1.3 | 5.5 ± 0.4 | 34.4 ± 2.4 | 6.9 | 0.1 ± 0.007 | – | – | 5.0 | 4.8 | – | – | 11 | 1.5 | 2.6 ± 0.3 | Minimum Inhibitory Concentration (MIC) [4]: –; selectivity index (SI) (Hep G2 [8]; [25]): ns (ns—no selectivity); MIC (MRSA-1): 62.5 ± 5.3 µM; MBC (MRSA-1): 500 ± 47 µM; MIC (MRSA-2): 62.5 ± 5.6 µM; MBC (MRSA-2): 62.5 ± 5.6 µM; MIC [18]: 62.5 ± 5.5 µM; MBC [18]: 125 ± 10 µM; selectivity index (SI) (A549 [19]; [25]): ns (ns—no selectivity); IC50 (SK-OV-3 [20]): 36.8 ± 2.6 µM; Minimum bactericidal and fungicidal concentrations (MBC, MFC) [21]: –; MIC [21]: 125 ± 11 µM; selectivity index (SI) (SK-OV-3 [22]): ns (ns—no selectivity); IC50 (A549 [23]): 48.2 ± 3.4 µM; MIC [24]: 31.3 ± 2.3 µM; MBC [24]: 500 ± 46 µM |
| CCCCCCCC[P+](c1ccccc1)(c1ccccc1)c1ccccc1 [compound 8, Octyltriphenylphosphonium iodide, reference compound] | 0.45 ± 0.04 | 102 | 2.2 | – | increase in the fluorescence intensity | 0.6 ± 0.05 | 4.2 ± 0.3 | 0.3 ± 0.02 | 1.6 ± 0.1 | 23 | 0.09 ± 0.006 | – | – | 31 | 20 | – | – | 23 | 15 | 0.4 ± 0.03 | MIC ([4]; Escherichia coli, ATCC25922, read-out: Minimum Inhibitory Concentration (MIC)): 500 ± 47 µM; selectivity index (SI) (Hep G2 [8]; [26]): 5.8; MIC (MRSA-1): 1.9 ± 0.1 µM; MBC (MRSA-1): 15.6 ± 1.2 µM; MIC (MRSA-2): 3.9 ± 0.3 µM; MBC (MRSA-2): 15.6 ± 1.3 µM; MIC [18]: 0.9 ± 0.07 µM; MBC [18]: 62.5 ± 5.3 µM; selectivity index (SI) (A549 [19]; [26]): 1.1; IC50 (SK-OV-3 [20]): 9.8 ± 0.7 µM; Minimum bactericidal and fungicidal concentrations (MBC, MFC) [21]: –; MIC [21]: 15.6 ± 1.2 µM; selectivity index (SI) (SK-OV-3 [22]): ns (ns—no selectivity); IC50 (A549 [23]): 8.7 ± 0.7 µM; MIC [24]: 0.9 ± 0.07 µM; MBC [24]: 500 ± 47 µM |
